IC50 data for 21 compounds are collected here from patent US8618095B2 (Rigel Pharmaceuticals, Inc., priority 2010, dated 2013).

Where a name gives a salt, the structure may show the parent alone.

The subject of one assay is Human mast cells (CHMC). In words: LD Tryptase release assay in CHMC (mast cell activation induced by FcγR cross-linking). It is filed as cell-based. The settings on record: Homo sapiens, Mast cell, anti-IgG stimulation, activity of tryptase released upon degranulation. As for the experimental part:
Compounds were assayed for inhibition of mast cell activation induced by FcγR cross-linking by measuring the activity of tryptase released upon degranulation as follows:
Human mast cells were cultured and differentiated from […] progenitor cell as described in U.S. Patent Publication No. 2005-234049, incorporated herein by reference. For example, 65 μL of various concentrations of the compound to be assayed were prepared in MT (137 mM NaCl, 2.7 mM KCl, 1.8 mM CaCl2, 1.0 mM MgCl2, 5.6 mM Glucose, 20 mM Hepes (pH 7.4), 0.1% Bovine Serum Albumin, (Sigma A4503)) containing 2% MeOH and 1% DMSO, or control buffer were added to duplicate 96-well V-bottom plates. Pelleted and re-suspended (in warm MT) CHMC cells (65 μL) were added to each 96-well plate, mixed and incubated for 1 hour at 37° C. 25 μl of 6× anti-IgG Rabbit anti-human IgG, Affinity purified (Bethyl Laboratories Cat No. A80-105A3) final concentration 1 μg/mL, was added to the test wells. MT (25 μL) was added to control wells. After a 60-minute incubation at 37° C., cells and cell debris were pelleted by centrifugation at 1000 rpm for 10 min and tryptase and leukotriene C4 levels were measured.
To measure tryptase levels, 25 μL of supernatant from each well was transferred to a fresh 96-well black bottom plate, to which 100 μL of fresh tryptase substrate solution [(Z-Ala-Lys-Arg-AMC2TFA; Enzyme Systems Products, #AMC-246)] 1:2000 in tryptase assay buffer [0.1 M Hepes (pH 7.5), 10% w/v Glycerol, 10 μM Heparin (Sigma H-4898) 0.01% NaN3] was added. After 30 minute incubation at room temperature, the optical density of the plates is measured at 355 nm/460 nm on a spectrophotometric plate reader. Table 1 provides the IC50 values.
Compounds of the disclosure were assayed for their ability to inhibit mast cell activation induced by FcγR cross-linking by measuring the activity of tryptase released upon degranulation. The IC50 values for the LD Tryptase assay are presented in Table 2, in which “0” is >100 μM; “A” is 1-100 μM; “B” is 0.5-1 μM; “C” is 0.1-0.5 μM; and “D” is less than 0.1 μM: […]
For the compound `C[C@@H]1CN(c2ccc(Nc3ncc(F)c(Nc4ccc5c(n4)NC(=O)CO5)n3)cc2)C[C@H](C)O1` [Compound 35, rac-Cis-N4-(3,4-dihydro-3-oxo-2H-pyrido[3,2-b][1,4]oxazin-6-yl)-5-fluoro-N2-[4-(2,6-dimethylmorpholino)phenyl]-2,4-pyrimidinediamine], the IC50 (as a rule, the point on the concentration scale where inhibition reaches its midpoint) lay in the range of 100 to 500 nM.

Regarding `C[C@@H]1COCCN1c1ccc(Nc2ncc(F)c(Nc3ccc4c(n3)NC(=O)CO4)n2)cn1` [Compound 51, N4-(3,4-dihydro-3-oxo-2H-pyrido[3,2-b][1,4]oxazin-6-yl)-5-fluoro-N2-[6-((3R)-3-methylmorpholino)pyridin-3-yl]-2,4-pyrimidinediamine], the IC50 is under 100 nM.

With `C[C@@H]1COCCN1c1ccc(Nc2ncc(F)c(Nc3ccc4c(n3)NC(=O)CO4)n2)cc1` [Compound 82], the IC50 fell in the range of 100 to 500 nM.

As to `C[C@@H]1CN(c2ccc(Nc3ncc(F)c(Nc4ccc5c(n4)NC(=O)C(C)(C)O5)n3)cn2)CCO1` [Compound 7, N4-(2,2-dimethyl-3,4-dihydro-3-oxo-2H-pyrido[3,2-b][1,4]oxazin-6-yl)-5-fluoro-N2-1-2,4-pyrimidinediamine], the IC50 was 100 to 500 nM.

Take `CC1(C)Oc2ccc(Nc3nc(Nc4ccc(N5CCC(C#N)CC5)cc4)ncc3F)nc2NC1=O` [Compound 154, N4-(2,2-dimethyl-3,4-dihydro-3-oxo-2H-pyrido[3,2-b][1,4]oxazin-6-yl)-5-fluoro-N2-[4-(4-cyanopiperidin-1-yl)phenyl]-2,4-pyrimidinediamine]: the IC50 is 100 to 500 nM.

With `C[C@H]1CN(c2ccc(Nc3ncc(F)c(Nc4ccc5c(n4)NC(=O)C(C)(C)O5)n3)cn2)[C@@H](C)CO1` (racemic) [Compound 105, rac-N4-(2,2-dimethyl-3,4-dihydro-3-oxo-2H-pyrido[3,2-b][1,4]oxazin-6-yl)-5-N2-[6-(2,5-dimethylmorpholino)pyridin-3-yl]-5-fluoro-2,4-pyrimidinediamine], the IC50 fell in the range of 100 to 500 nM.

In the case of `Cc1cc(Nc2ncc(F)c(Nc3ccc4c(n3)NC(=O)CO4)n2)cnc1N1CCOC(C)(C)C1` [Compound 12, N4-(3,4-dihydro-3-oxo-2H-pyrido[3,2-b][1,4]oxazin-6-yl)-5-fluoro-N2-[5-methyl-6-(2,2-dimethylmorpholino)pyridin-3-yl]-2,4-pyrimidinediamine], the IC50 is under 100 nM.

Take `Cc1cc(Nc2ncc(F)c(Nc3ccc4c(n3)NC(=O)CO4)n2)ccc1N1CCOCC1` [Compound 32]: the IC50 was under 100 nM.

Consider `COC1CCN(c2ccc(Nc3ncc(F)c(Nc4ccc5c(n4)NC(=O)C(C)(C)O5)n3)cn2)CC1` [Compound 53, N4-(2,2-dimethyl-3,4-dihydro-3-oxo-2H-pyrido[3,2-b][1,4]oxazin-6-yl)-5-fluoro-N2-[6-(4-methoxypiperidin-1-yl)pyridin-3-yl]-2,4-pyrimidinediamine], for which the IC50 is 100 to 500 nM.

`CC1(C)CN(c2ncc(Nc3ncc(F)c(Nc4ccc5c(n4)NC(=O)C(C)(C)O5)n3)cc2F)CCO1` [Compound 15, N4-(2,2-dimethyl-3,4-dihydro-3-oxo-2H-pyrido[3,2-b][1,4]oxazin-6-yl)-5-fluoro-N2-[5-fluoro-6-(2,2-dimethylmorpholino)pyridin-3-yl]-2,4-pyrimidinediamine]: the IC50 lay within 1000 to 100000 nM.

On to `CC1(C)Oc2ccc(Nc3nc(Nc4ccc(N5CCC(N6CCOCC6)CC5)nc4)ncc3F)nc2NC1=O` [Compound 60, N4-(2,2-dimethyl-3,4-dihydro-3-oxo-2H-pyrido[3,2-b][1,4]oxazin-6-yl)-5-fluoro-N2-[6-(4-morpholinopiperidin-1-yl)pyridin-3-yl]-2,4-pyrimidinediamine], for which the IC50 is 100 to 500 nM.

In the case of `C[C@@H]1CN(c2ccc(Nc3ncc(F)c(Nc4ccc5c(n4)NC(=O)C(C)(C)O5)n3)cc2)C[C@H](C)O1` [Compound 36, rac-Cis-N4-(2,2-dimethyl-3,4-dihydro-3-oxo-2H-pyrido[3,2-b][1,4]oxazin-6-yl)-5-fluoro-N2-[4-(2,6-dimethylmorpholino)phenyl]-2,4-pyrimidinediamine], the IC50 was in the range of 100 to 500 nM.

For the compound `CN(c1ccc(Nc2ncc(F)c(Nc3ccc4c(n3)NC(=O)C(C)(C)O4)n2)cn1)C1CCOCC1` [Compound 143, N4-(2,2-dimethyl-3,4-dihydro-3-oxo-2H-pyrido[3,2-b][1,4]oxazin-6-yl)-5-fluoro-N2-[6-(methyl(tetrahydro-2H-pyran-4-yl)amino)pyridin-3-yl]-2,4-pyrimidinediamine], the IC50 was under 100 nM.

For `Cc1cc(Nc2ncc(F)c(Nc3ccc4c(n3)NC(=O)C(C)(C)O4)n2)ccc1N1C[C@@H]2C[C@H]1CO2` [Compound 24, N4-(2,2-dimethyl-3,4-dihydro-3-oxo-2H-pyrido[3,2-b][1,4]oxazin-6-yl)-5-fluoro-N2-[3-methyl-4-((1S,4S)-5-oxa-2-aza-bicyclo[2.2.1]heptan-2-yl)phenyl]-2,4-pyrimidinediamine], the IC50 is under 100 nM.

As for `COC1CN(c2ccc(Nc3ncc(F)c(Nc4ccc5c(n4)NC(=O)C(C)(C)O5)n3)cn2)C1` [Compound 69, N4-(2,2-dimethyl-3,4-dihydro-3-oxo-2H-pyrido[3,2-b][1,4]oxazin-6-yl)-5-fluoro-N2-[6-(3-methoxyazetidin-1-yl)pyridin-3-yl]-2,4-pyrimidinediamine], the IC50 is over 100000 nM.

On to `CC1(C)Oc2ccc(Nc3nc(Nc4ccc(N5CCOCC5)cc4)ncc3F)nc2NC1=O` [Compound 1, N4-(2,2-dimethyl-3,4-dihydro-3-oxo-2H-pyrido[3,2-b][1,4]oxazin-6-yl)-5-fluoro-N2-(4-morpholinophenyl)-2,4-pyrimidinediamine], for which the IC50 was under 100 nM.

With `CC1(C)Oc2ccc(Nc3nc(Nc4ccc(N5CCC(O)C5)nc4)ncc3F)nc2NC1=O` (stereo in doubt) [Compound 55, N4-(2,2-dimethyl-3,4-dihydro-3-oxo-2H-pyrido[3,2-b][1,4]oxazin-6-yl)-5-fluoro-N2-[6-((3R)-3-hydroxypyrrolidin-1-yl)pyridin-3-yl]-2,4-pyrimidinediamine], the IC50 is under 100 nM.

For the compound `O=C1COc2ccc(Nc3nc(Nc4ccc(C5CCOCC5)cc4)ncc3F)nc2N1` [Compound 46, N4-(3,4-dihydro-3-oxo-2H-pyrido[3,2-b][1,4]oxazin-6-yl)-5-fluoro-N2-[4-tetrahydropyranophenyl]-2,4-pyrimidinediamine], the IC50 is under 100 nM.

`CCOC1CCN(c2ccc(Nc3ncc(F)c(Nc4ccc5c(n4)NC(=O)C(C)(C)O5)n3)cc2)CC1` [Compound 85, N4-(2,2-dimethyl-3,4-dihydro-3-oxo-2H-pyrido[3,2-b][1,4]oxazin-6-yl)-5-fluoro-N2-[4-(4-ethoxypiperidin-1-yl)phenyl]-2,4-pyrimidinediamine]: the IC50 lay within 100 to 500 nM.

The same assay, now with this note: anti-IgG stimulation, activity of tryptase released upon degranulation.
Regarding `Cc1cc(Nc2ncc(F)c(Nc3ccc4c(n3)N(COP(=O)(O)O)C(=O)C(C)(C)O4)n2)ccc1N1CCOCC1` [Compound 112, N4-(2,2-dimethyl-3,4-dihydro-4-[(dihydrogenphosphonoxy)methyl]-3-oxo-2H-pyrido[3,2-b][1,4]oxazin-6-yl)-5-fluoro-N2-(3-methyl-4-morpholinophenyl)-2,4-pyrimidinediamine disodium salt], the IC50 is 500 to 1000 nM.

Consider `O=C1COc2ccc(Nc3nc(Nc4ccc(N5CCOCC5)cc4)ncc3F)nc2N1COP(=O)(O)O` [Compound 114, N4-(3,4-dihydro-4-[(dihydrogenphosphonoxy)methyl]-3-oxo-2H-pyrido[3,2-b][1,4]oxazin-6-yl)-5-fluoro-N2-(4-morpholinophenyl)-2,4-pyrimidinediamine disodium salt], for which the IC50 is 1000 to 100000 nM.
